# Test system: test plant species
# Assay: Post-emergent herbicidal activity test (greenhouse, foliar spray, visual growth reduction)
# Assay type: in vivo
# Conditions: post-emergence, 336 h, ECHCG: barnyardgrass (Echinochloa crus-galli), 140 g ai/ha, 14 days after application, read-out: Visual Growth Reduction (%) 14 Days After Application, ECHCG
# Method in brief: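 Greenhouse plants at first–second true leaf stage sprayed overhead at 187 L/ha with compound in acetone/water/isopropanol/DMSO/crop oil/X-77 carrier; controls received solvent blank. Injury rated visually after 14 d on a 0–100% scale versus untreated and control plants, converted to growth reduction.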
row,SMILES,pest or weed control at 140 g/ha
1,"C#Cc1cc(-c2nc(C(=O)OC)c(Cl)cc2F)c(Cl)cc1C(F)(F)F [F251, Methyl 3-chloro-6-(2-chloro-5-ethynyl-4-(trifluoromethyl)phenyl)-5-yl) picolinate]",0 to 29%
2,"COC(=O)c1cc2c(c(-c3ccc(Cl)c(C(=O)OC)n3)c1)OC(F)(F)O2 [F245, Methyl 3-chloro-6-(2,2-difluoro-6-(methoxycarbonyl)benzo[d][1,3]dioxol-4-yl)picolinate]",0 to 29%

# Same assay, conditions: post-emergence, 336 h, IPOHE: ivy-leaf morning glory (Ipomoea hederacea), 140 g ai/ha, 14 days after application, read-out: Visual Growth Reduction (%) 14 Days After Application, IPOHE
row,SMILES,pest or weed control at 140 g/ha
1,"C#Cc1cc(-c2nc(C(=O)OC)c(Cl)cc2F)c(Cl)cc1C(F)(F)F [F251, Methyl 3-chloro-6-(2-chloro-5-ethynyl-4-(trifluoromethyl)phenyl)-5-yl) picolinate]",95 to 100%
2,"COC(=O)c1cc2c(c(-c3ccc(Cl)c(C(=O)OC)n3)c1)OC(F)(F)O2 [F245, Methyl 3-chloro-6-(2,2-difluoro-6-(methoxycarbonyl)benzo[d][1,3]dioxol-4-yl)picolinate]",85 to 94%

# Same assay, conditions: post-emergence, 336 h, KCHSC: kochia (Bassia scoparia), 140 g ai/ha, 14 days after application, read-out: Visual Growth Reduction (%) 14 Days After Application, KCHSC
row,SMILES,pest or weed control at 140 g/ha
1,"C#Cc1cc(-c2nc(C(=O)OC)c(Cl)cc2F)c(Cl)cc1C(F)(F)F [F251, Methyl 3-chloro-6-(2-chloro-5-ethynyl-4-(trifluoromethyl)phenyl)-5-yl) picolinate]",60 to 74%
2,"COC(=O)c1cc2c(c(-c3ccc(Cl)c(C(=O)OC)n3)c1)OC(F)(F)O2 [F245, Methyl 3-chloro-6-(2,2-difluoro-6-(methoxycarbonyl)benzo[d][1,3]dioxol-4-yl)picolinate]",0 to 29%

# Same assay, conditions: post-emergence, 336 h, ORYSA: rice (Oryza sativa), 140 g ai/ha, 14 days after application, read-out: Visual Growth Reduction (%) 14 Days After Application, ORYSA
row,SMILES,pest or weed control at 140 g/ha
1,"C#Cc1cc(-c2nc(C(=O)OC)c(Cl)cc2F)c(Cl)cc1C(F)(F)F [F251, Methyl 3-chloro-6-(2-chloro-5-ethynyl-4-(trifluoromethyl)phenyl)-5-yl) picolinate]",0 to 29%
2,"COC(=O)c1cc2c(c(-c3ccc(Cl)c(C(=O)OC)n3)c1)OC(F)(F)O2 [F245, Methyl 3-chloro-6-(2,2-difluoro-6-(methoxycarbonyl)benzo[d][1,3]dioxol-4-yl)picolinate]",0 to 29%

# Same assay, conditions: post-emergence, 336 h, SETFA: giant foxtail (Setaria faberi), 140 g ai/ha, 14 days after application, read-out: Visual Growth Reduction (%) 14 Days After Application, SETFA
row,SMILES,pest or weed control at 140 g/ha
1,"C#Cc1cc(-c2nc(C(=O)OC)c(Cl)cc2F)c(Cl)cc1C(F)(F)F [F251, Methyl 3-chloro-6-(2-chloro-5-ethynyl-4-(trifluoromethyl)phenyl)-5-yl) picolinate]",85 to 94%
2,"COC(=O)c1cc2c(c(-c3ccc(Cl)c(C(=O)OC)n3)c1)OC(F)(F)O2 [F245, Methyl 3-chloro-6-(2,2-difluoro-6-(methoxycarbonyl)benzo[d][1,3]dioxol-4-yl)picolinate]",0 to 29%

# Same assay, conditions: post-emergence, 336 h, SORVU: grain sorghum (Sorghum vulgare), 140 g ai/ha, 14 days after application, read-out: Visual Growth Reduction (%) 14 Days After Application, SORVU
row,SMILES,pest or weed control at 140 g/ha
1,"C#Cc1cc(-c2nc(C(=O)OC)c(Cl)cc2F)c(Cl)cc1C(F)(F)F [F251, Methyl 3-chloro-6-(2-chloro-5-ethynyl-4-(trifluoromethyl)phenyl)-5-yl) picolinate]",85 to 94%
2,"COC(=O)c1cc2c(c(-c3ccc(Cl)c(C(=O)OC)n3)c1)OC(F)(F)O2 [F245, Methyl 3-chloro-6-(2,2-difluoro-6-(methoxycarbonyl)benzo[d][1,3]dioxol-4-yl)picolinate]",75 to 84%

# Same assay, conditions: post-emergence, 336 h, STEME: common chickweed (Stellaria media), 140 g ai/ha, 14 days after application, read-out: Visual Growth Reduction (%) 14 Days After Application, STEME
row,SMILES,pest or weed control at 140 g/ha
1,"C#Cc1cc(-c2nc(C(=O)OC)c(Cl)cc2F)c(Cl)cc1C(F)(F)F [F251, Methyl 3-chloro-6-(2-chloro-5-ethynyl-4-(trifluoromethyl)phenyl)-5-yl) picolinate]",0 to 29%
2,"COC(=O)c1cc2c(c(-c3ccc(Cl)c(C(=O)OC)n3)c1)OC(F)(F)O2 [F245, Methyl 3-chloro-6-(2,2-difluoro-6-(methoxycarbonyl)benzo[d][1,3]dioxol-4-yl)picolinate]",0 to 29%

# Same assay, conditions: post-emergence, 336 h, TRZAS: wheat, spring (Triticum aestivum), 140 g ai/ha, 14 days after application, read-out: Visual Growth Reduction (%) 14 Days After Application, TRZAS
row,SMILES,pest or weed control at 140 g/ha
1,"C#Cc1cc(-c2nc(C(=O)OC)c(Cl)cc2F)c(Cl)cc1C(F)(F)F [F251, Methyl 3-chloro-6-(2-chloro-5-ethynyl-4-(trifluoromethyl)phenyl)-5-yl) picolinate]",0 to 29%
2,"COC(=O)c1cc2c(c(-c3ccc(Cl)c(C(=O)OC)n3)c1)OC(F)(F)O2 [F245, Methyl 3-chloro-6-(2,2-difluoro-6-(methoxycarbonyl)benzo[d][1,3]dioxol-4-yl)picolinate]",0 to 29%

# Same assay, conditions: post-emergence, 336 h, blackgrass (Alopecurus myosuroides), 14 Days After Application, 140 g ai/ha, read-out: Visual Growth Reduction (%) ALOMY
row,SMILES,pest or weed control at 140 g/ha
1,"C#Cc1cc(-c2nc(C(=O)OC)c(Cl)cc2F)c(Cl)cc1C(F)(F)F [F251, Methyl 3-chloro-6-(2-chloro-5-ethynyl-4-(trifluoromethyl)phenyl)-5-yl) picolinate]",0 to 29%
2,"COC(=O)c1cc2c(c(-c3ccc(Cl)c(C(=O)OC)n3)c1)OC(F)(F)O2 [F245, Methyl 3-chloro-6-(2,2-difluoro-6-(methoxycarbonyl)benzo[d][1,3]dioxol-4-yl)picolinate]",0 to 29%

# Same assay, conditions: post-emergence, 336 h, canada thistle (Cirsium arvense), 14 Days After Application, 140 g ai/ha, read-out: Visual Growth Reduction (%) CIRAR
row,SMILES,pest or weed control at 140 g/ha
1,"C#Cc1cc(-c2nc(C(=O)OC)c(Cl)cc2F)c(Cl)cc1C(F)(F)F [F251, Methyl 3-chloro-6-(2-chloro-5-ethynyl-4-(trifluoromethyl)phenyl)-5-yl) picolinate]",85 to 94%
2,"COC(=O)c1cc2c(c(-c3ccc(Cl)c(C(=O)OC)n3)c1)OC(F)(F)O2 [F245, Methyl 3-chloro-6-(2,2-difluoro-6-(methoxycarbonyl)benzo[d][1,3]dioxol-4-yl)picolinate]",0 to 29%

# Same assay, conditions: post-emergence, 336 h, crabgrass (Digitaria sanguinalis), 14 Days After Application, 140 g ai/ha, read-out: Visual Growth Reduction (%) DIGSA
row,SMILES,pest or weed control at 140 g/ha
1,"C#Cc1cc(-c2nc(C(=O)OC)c(Cl)cc2F)c(Cl)cc1C(F)(F)F [F251, Methyl 3-chloro-6-(2-chloro-5-ethynyl-4-(trifluoromethyl)phenyl)-5-yl) picolinate]",75 to 84%
2,"COC(=O)c1cc2c(c(-c3ccc(Cl)c(C(=O)OC)n3)c1)OC(F)(F)O2 [F245, Methyl 3-chloro-6-(2,2-difluoro-6-(methoxycarbonyl)benzo[d][1,3]dioxol-4-yl)picolinate]",0 to 29%

# Same assay, conditions: post-emergence, 336 h, lambsquarters (Chenopodium album), 14 Days After Application, 140 g ai/ha, read-out: Visual Growth Reduction (%) CHEAL
row,SMILES,pest or weed control at 140 g/ha
1,"C#Cc1cc(-c2nc(C(=O)OC)c(Cl)cc2F)c(Cl)cc1C(F)(F)F [F251, Methyl 3-chloro-6-(2-chloro-5-ethynyl-4-(trifluoromethyl)phenyl)-5-yl) picolinate]",95 to 100%
2,"COC(=O)c1cc2c(c(-c3ccc(Cl)c(C(=O)OC)n3)c1)OC(F)(F)O2 [F245, Methyl 3-chloro-6-(2,2-difluoro-6-(methoxycarbonyl)benzo[d][1,3]dioxol-4-yl)picolinate]",85 to 94%

# Same assay, conditions: post-emergence, 336 h, redroot pigweed (Amaranthus retroflexus), 14 Days After Application, 140 g ai/ha, read-out: Visual Growth Reduction (%) AMARE
row,SMILES,pest or weed control at 140 g/ha
1,"C#Cc1cc(-c2nc(C(=O)OC)c(Cl)cc2F)c(Cl)cc1C(F)(F)F [F251, Methyl 3-chloro-6-(2-chloro-5-ethynyl-4-(trifluoromethyl)phenyl)-5-yl) picolinate]",85 to 94%
2,"COC(=O)c1cc2c(c(-c3ccc(Cl)c(C(=O)OC)n3)c1)OC(F)(F)O2 [F245, Methyl 3-chloro-6-(2,2-difluoro-6-(methoxycarbonyl)benzo[d][1,3]dioxol-4-yl)picolinate]",0 to 29%

# Same assay, conditions: post-emergence, 336 h, wild oat (Avena fatua), 14 Days After Application, 140 g ai/ha, read-out: Visual Growth Reduction (%) AVEFA
row,SMILES,pest or weed control at 140 g/ha
1,"C#Cc1cc(-c2nc(C(=O)OC)c(Cl)cc2F)c(Cl)cc1C(F)(F)F [F251, Methyl 3-chloro-6-(2-chloro-5-ethynyl-4-(trifluoromethyl)phenyl)-5-yl) picolinate]",0 to 29%
2,"COC(=O)c1cc2c(c(-c3ccc(Cl)c(C(=O)OC)n3)c1)OC(F)(F)O2 [F245, Methyl 3-chloro-6-(2,2-difluoro-6-(methoxycarbonyl)benzo[d][1,3]dioxol-4-yl)picolinate]",0 to 29%

# Same assay, conditions: post-emergence, 336 h, yellow nutsedge (Cyperus esculentus), 14 Days After Application, 140 g ai/ha, read-out: Visual Growth Reduction (%) CYPES
row,SMILES,pest or weed control at 140 g/ha
1,"C#Cc1cc(-c2nc(C(=O)OC)c(Cl)cc2F)c(Cl)cc1C(F)(F)F [F251, Methyl 3-chloro-6-(2-chloro-5-ethynyl-4-(trifluoromethyl)phenyl)-5-yl) picolinate]",0 to 29%
2,"COC(=O)c1cc2c(c(-c3ccc(Cl)c(C(=O)OC)n3)c1)OC(F)(F)O2 [F245, Methyl 3-chloro-6-(2,2-difluoro-6-(methoxycarbonyl)benzo[d][1,3]dioxol-4-yl)picolinate]",45 to 59%

# Source: patent US20230017045A1, “PYRIDINE AND PYRIMIDINE CARBOXYLATE HERBICIDES AND METHODS OF USE THEREOF” (Dow AgroSciences LLC, priority 2017, published 2023)
